The target of this assay is T1, Human prostaglandin E2 receptor 4 (EP4) (Homo sapiens, UniProt P35408).
T1 construct: expressed in transfected cells; host or cells: HEK293 cells transduced with EP4 BacMam virus
Put plainly: cAMP Gs Functional Assay (HTRF cAMP dynamic-2), antagonism of PGE2. The assay is classed as cell-based. To be noted: HEK293 cells transfected with EP4 BacMam virus; PGE2 challenge at EC80 (7 nM); pIC50 converted to functional pKb with a modified Cheng Prussoff equation; read-out: Human EP4 fpKb (converted). The procedure:
Cloning, Baculovirus generation, large scale infection of HEK293 cells and membrane preparation: Human prostaglandin E2 receptor 4 (EP4) was cloned into pBacMam expression vector (GeneScript, UK). Transposition of EP4 DNA was performed using Invitrogen's Bac-to-Bac Baculovirus Expression Systems. P0 baculovirus was generated by transfecting SF9 Cells with bacmid DNA using Cellfectin II transfection reagent (ThermoFisher Scientific, UK, catalog number 10362-100). Following P0 generation P1 virus was then generated ready for large scale infection and membrane preparation. HEK293 cells were grown in DMEM+Glutamax, supplemented with 10% heat inactivated fetal bovine serum (FBS). Cells were infected at a seeding density of 3.5 million cells/mL in 500 cm^3 flasks at 5% v/v EP4 Bacman. Expression was carried out over 36 hr period at 37° C. with 5% CO2. The cells were removed using PBS and a cell scrapper. The cell culture was centrifuged at 2500 RPM for 10 mins at 4° C. The supernatant was then poured off and the pellet stored at −80° C. The pellet was defrosted and re-suspended in 15 mL of homogenising buffer (20 mM HEPES, 10 mM EDTA, pH 7.4). Then homogenised in mechanical homogeniser (VMR) for 10 seconds. The membrane was centrifuged in centrifuge tubes at 40,000 g for 15 mins at 4° C. The supernatant was poured away and re-suspended in 15 mL of homogenising buffer. Homogenised for 20 seconds. The membrane was centrifuged at 40,000 g for 45 mins at 4° C. The membrane was re-suspended in 3 mL of storage buffer (20 mM HEPES, 0.1 mM EDTA, pH 7.4) mixing well. The resulting membranes were then stored at −80° C.
cAMP Gs Functional Assay: cAMP production following EP4 receptor activation was determined using the Homogeneous Time-Resolved Fluorescence (HTRF) cAMP dynamic-2 assay (Cisbio, France). HEK293 cells were transfected using a 0.5% EP4 Bacman virus for 36 hours, before dissociating the cells, and freezing at […].
On the day of testing, increasing concentration of test compounds, alongside positive controls (1 uM ONO-AE3-208) and negative control (DMSO (Sigma-Aldrich, UK) were added to a ProxiPlate-384 Plus, White 384-shallow well Mircoplate, (PerkinElmer, USA) using the ECHO dispense.
Cells were defrosted in a water bath and resuspended in DMEM supplemented with 10% FBS before centrifuging at 1200 RPM for 5 mins to form a pellet. The pellet was resuspended in assay buffer (DMEM+0.5 mM IBMX (Tocris, Abingdon, UK, Catalog Number 2845)) to a 1×10^6 cells/mL. Cell suspension, for a final assay concentration of 5000 cell/well was added using the multidrop to the pre-dispensed assay plate. The plate was then incubated at 37° C. for 30 mins, with 5% CO2. After incubation, EC80 concentration (7 nM) of PGE2 (EP4 agonist) was added to the plate. In parallel, a PGE2 dose-response curve was dispense to a separate plate. Assay buffer was then dispensed on top. The cAMP production was determined as manufacturer's instructions, before plates were read on a PheraStar fluorescence plate reader (BMG LabTech, Germany).
The pIC50 was converted to a functional pKb value using a modified Cheng Prussoff equation where Kd=agonist EC50 and Lhot=agonist challenge concentration;
(TR-FRET usually uses a lanthanide donor and a delayed reading to cut background.)

T1 sequence (P35408 whole entry): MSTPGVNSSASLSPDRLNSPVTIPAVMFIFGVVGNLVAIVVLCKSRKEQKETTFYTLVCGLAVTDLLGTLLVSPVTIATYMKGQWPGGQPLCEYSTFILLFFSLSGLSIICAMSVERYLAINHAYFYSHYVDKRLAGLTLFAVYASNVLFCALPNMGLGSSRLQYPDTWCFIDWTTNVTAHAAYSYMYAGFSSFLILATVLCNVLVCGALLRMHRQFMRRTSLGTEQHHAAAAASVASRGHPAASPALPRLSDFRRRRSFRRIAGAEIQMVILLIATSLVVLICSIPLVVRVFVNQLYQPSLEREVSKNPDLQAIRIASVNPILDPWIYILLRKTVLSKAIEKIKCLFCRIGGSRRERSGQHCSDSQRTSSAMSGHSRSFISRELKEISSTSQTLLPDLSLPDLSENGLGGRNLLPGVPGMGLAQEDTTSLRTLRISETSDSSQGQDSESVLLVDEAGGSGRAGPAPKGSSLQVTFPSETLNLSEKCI

As for `O=C(O)c1ccc(C2(NC(=O)C(OCc3ccc(C(F)(F)F)cc3)C3CCC3)CC2)cc1` (stereo not shown) [Example 96, 4-(1-(2-cyclobutyl-2-((4-(trifluoromethyl)benzyl)oxy)acetamido)cyclopropyl)benzoic acid], the Ki was 6.61 nM.

For the compound `COCc1cccc(CO[C@@H](C(=O)N[C@@H](C)c2ccc(C(=O)O)cc2)C(C)C)c1` [Example 40, 4-((S)-1-((R)-2-((3-(methoxymethyl)benzyl)oxy)-3-methylbutanamido)ethyl)benzoic acid], the Ki is 1.66 nM.

On to `CC(C)[C@@H](OCc1ccc(S(C)(=O)=O)cc1)C(=O)N[C@@H](C)c1ccc(C(=O)O)cc1` [Example 10, 4-((S)-1-((R)-3-methyl-2-((4-(methylsulfonyl)benzyl)oxy)butanamido)ethyl)benzoic acid], for which the Ki is 20.4 nM.

Take `CC(C)[C@@H](OCc1ccc(Cl)cc1)C(=O)N[C@@H](C)c1ccc(C(=O)O)cc1` [Example 11, 4-((S)-1-((R)-2-((4-chlorobenzyl)oxy)-3-methylbutanamido)ethyl)benzoic acid]: the Ki is 3.16 nM.

Regarding `CC(C)[C@@H](OCc1ccc(C(F)F)cn1)C(=O)NC1(c2ccc(C(=O)O)cc2)CC1` [Example 88, (R)-4-(1-(2-((5-(difluoromethyl)pyridin-2-yl)methoxy)-3-methylbutanamido)cyclopropyl)benzoic acid], the Ki is 11.7 nM.

On to `CC(C)[C@@H](OCc1ccc(C(F)(F)F)cc1)C(=O)NC(C)(C)c1ccc(C(=O)O)cc1` [Example 64, (R)-4-(2-(3-methyl-2-((4-(trifluoromethyl)benzyl)oxy)butanamido)propan-2-yl)benzoic acid], for which the Ki was 47.9 nM.

As to `CC(C)[C@@H](OCc1ccc(C(F)F)nc1)C(=O)NC1(c2ccc(C(=O)O)cc2)CC1` [Example 84, (R)-4-(1-(2-((6-(difluoromethyl)pyridin-3-yl)methoxy)-3-methylbutanamido)cyclopropyl)benzoic acid], the Ki is 11.2 nM.

As for `CC(C)[C@@H](OCc1cccc(S(=O)(=O)C2CC2)c1)C(=O)NC1(c2ccc(C(=O)O)cc2)CC1` [Example 91, (R)-4-(1-(2-((3-(cyclopropylsulfonyl)benzyl)oxy)-3-methylbutanamido)cyclopropyl)benzoic acid], the Ki was 20 nM.

With `CC(C)[C@@H](OCc1cccc(C(F)(F)F)c1)C(=O)N[C@@H](C)c1ccc(C(=O)O)cc1` [Example 15, 4-((S)-1-((R)-3-methyl-2-((3-(trifluoromethyl)benzyl)oxy)butanamido)ethyl)benzoic acid], the Ki is 0.288 nM.

`CC(C)[C@@H](OCc1ccc(C(F)(F)F)cc1)C(=O)NC1(c2ccc(C(=O)NS(C)(=O)=O)cc2)CC1` [Example 63, (R)-4-(1-(3-methyl-2-((4-(trifluoromethyl)benzyl)oxy)butanamido)cyclopropyl)-N-(methylsulfonyl)benzamide]: the Ki is 25.7 nM.

Consider `CC(C)[C@@H](OCc1cccc(C2CC2)c1)C(=O)N[C@@H](C)c1ccc(-c2nnn[nH]2)cc1` [Example 83, (R)—N—((S)-1-(4-(1H-tetrazol-5-yl)phenyl)ethyl)-2-((3-cyclopropylbenzyl)oxy)-3-methylbutanamide], for which the Ki is 0.186 nM.

For the compound `CC(C)[C@@H](OCc1ccc(F)c(C2CC2)c1)C(=O)N[C@@H](C)c1ccc(C(=O)O)cc1` [Example 85, 4-((S)-1-((R)-2-((3-cyclopropyl-4-fluorobenzyl)oxy)-3-methylbutanamido)ethyl)benzoic acid], the Ki is 0.055 nM.

For the compound `CC(O[C@@H](C(=O)N[C@@H](C)c1ccc(C(=O)O)cc1)C(C)C)c1ccc(F)cc1` (mixture of isomers) [Example 46, 4-((1 S)-1-((2R)-2-(1-(4-fluorophenyl)ethoxy)-3-methylbutanamido)ethyl)benzoic acid], the Ki is 7.24 nM.

For the compound `CC(C)C(OCc1cccc(C2COC2)c1)C(=O)N[C@@H](C)c1ccc(C(=O)O)cc1` (single isomer, unassigned) [Example 48], the Ki was 141 nM.

In the case of `O=C(O)c1ccc(C2(NC(=O)C(OCc3ccc(F)c(F)c3)C3CCC3)CC2)cc1` (stereo not shown) [Example 97, 4-(1-(2-cyclobutyl-2-((3,4-difluorobenzyl)oxy)acetamido)cyclopropyl)benzoic acid], the Ki is 12.6 nM.

For `COCc1cccc(CO[C@@H](C(=O)NC2(c3ccc(C(=O)O)cc3)CC2)C(C)C)c1` [Example 60, (R)-4-(1-(2-((3-(methoxymethyl)benzyl)oxy)-3-methylbutanamido)cyclopropyl)benzoic acid], the Ki is 1.91 nM.

`CC(C)C(OCc1cccc(F)c1)C(=O)N[C@@H](C)c1ccc(C(=O)O)cc1` (single isomer, unassigned) [Example 18]: the Ki was 457 nM.

For `CC(C)[C@H](OCc1ccc(S(C)(=O)=O)cc1)C(=O)N[C@@H](C)c1ccc(C(=O)O)cc1` [Example 9, 4-((S)-1-((S)-3-methyl-2-((4-(methylsulfonyl)benzyl)oxy)butanamido)ethyl)benzoic acid], the Ki is greater than 195 nM.

For `CC(C)[C@@H](OCc1cccc(Cl)c1)C(=O)N[C@@H](C)c1ccc(C(=O)O)cc1` [Example 12, 4-((S)-1-((R)-2-((3-chlorobenzyl)oxy)-3-methylbutanamido)ethyl)benzoic acid], the Ki is 0.813 nM.

Take `CC(C)[C@@H](OCc1ccc(F)c(C2CC2)c1)C(=O)NC1(c2ccc(C(=O)O)cc2)CC1` [Example 89, (R)-4-(1-(2-((3-cyclopropyl-4-fluorobenzyl)oxy)-3-methylbutanamido)cyclopropyl)benzoic acid]: the Ki is 6.76 nM.

With `CC(C)[C@@H](OCc1cccc(S(C)(=O)=O)c1)C(=O)N[C@@H](C)c1ccc(C(=O)O)cc1` [Example 8, 4-((S)-1-((R)-3-methyl-2-((3-(methylsulfonyl)benzyl)oxy)butanamido)ethyl)benzoic acid], the Ki was 8.71 nM.

Take `CC(C)[C@@H](OCc1ccc(F)c(OC(F)F)c1)C(=O)N[C@@H](C)c1ccc(C(=O)O)cc1` [Example 32, 4-((S)-1-((R)-2-((3-(difluoromethoxy)-4-fluorobenzyl)oxy)-3-methylbutanamido)ethyl)benzoic acid]: the Ki is 0.224 nM.

For `CC(C)[C@@H](OCc1cccc(S(C)(=O)=O)c1)C(=O)NC1(c2ccc(C(=O)O)cc2)CC1` [Example 33, (R)-4-(1-(3-methyl-2-((3-(methylsulfonyl)benzyl)oxy)butanamido)cyclopropyl)benzoic acid], the Ki was 14.5 nM.

For `CC(C)[C@@H](OCc1ccccc1)C(=O)N[C@@H](C)c1ccc(C(=O)O)cc1` [Example 19, 4-((S)-1-((R)-2-(benzyloxy)-3-methylbutanamido)ethyl)benzoic acid], the Ki was 12.9 nM.

As to `O=C(O)c1ccc(C2(NC(=O)C(OCc3cccc(Cl)c3)C3CCC3)CC2)cc1` (stereo not shown) [Example 98, 4-(1-(2-((3-chlorobenzyl)oxy)-2-cyclobutylacetamido)cyclopropyl)benzoic acid], the Ki was 1.48 nM.

As to `CC(C)[C@@H](OCc1ccc(C(F)(F)F)cc1)C(=O)NC1(c2ccc(C(=O)O)cc2)CCC1` [Example 73, (R)-4-(1-(3-methyl-2-((4-(trifluoromethyl)benzyl)oxy)butanamido)cyclobutyl)benzoic acid], the Ki is 182 nM.

On to `CC(C)[C@@H](OCc1cccc(OC(F)F)c1)C(=O)NC1(c2ccc(-c3nnn[nH]3)cc2)CC1` [Example 72, (R)—N-(1-(4-(1H-tetrazol-5-yl)phenyl)cyclopropyl)-2-((3-(difluoromethoxy)benzyl)oxy)-3-methylbutanamide], for which the Ki is 0.589 nM.

For the compound `CC(C)[C@@H](OCc1ccc(C(F)F)cc1)C(=O)NC1(c2ccc(C(=O)O)cc2)CC1` [Example 62, (R)-4-(1-(2-((4-(difluoromethyl)benzyl)oxy)-3-methylbutanamido)cyclopropyl)benzoic acid], the Ki is 0.398 nM.

(Values after patent US12391641B2, “Prostaglandin EP4 receptor antagonist compounds” (NXERA PHARMA UK LIMITED, priority 2019, dated 2025).)
